A value given as a limit tells only on which side of the number the result lay.

For this assay, the target named is T1, ALK2 R206H (GST-tagged mutant ALK2) (Homo sapiens, UniProt Q04771, R206H).
T1 construct: purchased Carna Bioscience or ThermoFisher 09-148 or PV6232
T1 sequence (Q04771 21-509 R206H): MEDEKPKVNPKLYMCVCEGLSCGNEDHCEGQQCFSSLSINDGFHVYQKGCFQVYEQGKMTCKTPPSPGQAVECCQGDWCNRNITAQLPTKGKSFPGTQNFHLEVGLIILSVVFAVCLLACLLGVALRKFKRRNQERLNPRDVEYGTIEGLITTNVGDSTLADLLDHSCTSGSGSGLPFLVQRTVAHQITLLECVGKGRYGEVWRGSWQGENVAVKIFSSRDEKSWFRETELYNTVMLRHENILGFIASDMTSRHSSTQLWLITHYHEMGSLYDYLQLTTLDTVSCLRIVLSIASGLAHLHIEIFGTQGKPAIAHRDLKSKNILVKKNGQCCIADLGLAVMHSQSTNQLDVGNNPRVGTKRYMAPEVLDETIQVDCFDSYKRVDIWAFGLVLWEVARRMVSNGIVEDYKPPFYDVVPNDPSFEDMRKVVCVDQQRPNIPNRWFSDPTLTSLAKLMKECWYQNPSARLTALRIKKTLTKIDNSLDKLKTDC
The experiment in a line: ALK binding assay (LANTHASCREEN TR-FRET competitive binding, displacement of Kinase Tracer 178). Particulars: ALK2 R206H, LANTHASCREEN TR-FRET competitive binding; read-out: Binding Assay (IC50). As to the method: Binding assays were conducted using the LANTHASCREEN® technology (ThermoFisher Scientific). LANTHASCREEN® is a competitive binding, displacement assay where the assumed steady state occupancy of the binding site is measured using a time-resolved, fluorescence energy transfer (TR-FRET) readout between a fluorescent tracer and Europium (Eu)-tagged antibody specific for the kinase or expression tag (e.g. GST) of interest. Displacement of the tracer by a compound of the disclosure reduces, and is directly proportional to, the TR-FRET between the tracer and the antibody. Tracer was used at a concentration equal to or near to its Kd for the kinase.
In all cases, the kinase (2-5 nM) was mixed with Eu-tagged antibody (10 nM) mix and tracer (50 nM) were incubated with test compound titrations prepared in 100% DMSO (1% DMSO final) for 30 minutes at room temperature. All reagents and compounds were dissolved in Kinase Buffer A (ThermoFisher) to achieve the final concentration. […] This readout was normalized to 0% and 100% inhibited control wells, plotted against inhibitor concentration, and fitted to a 4-parameter log dose response curve.
Blank values in the table indicate that the particular compound was not tested in this assay.
Background: In TR-FRET formats the signal depends on donor and acceptor labels being close together.
For orientation: IC50 means the midpoint of a concentration-inhibition curve. Regarding `CC(C)N1CCC(c2ccc(-c3cc4c(N5CCN(C(=O)N6CC7(COC7)C6)CC5)ccnn4c3)cc2)CC1` [Compound 841], the IC50 is 10 to 50 nM.

As to `CCN1CCN(c2ccc(-c3cc4c(N5CCN(C(=O)C6(c7cccnc7)CC6)CC5)ccnn4c3)cc2)CC1` [Compound 433], the IC50 is > 50 nM.

For the molecule `CCOC(=O)N1CCN(c2ccnn3cc(-c4ccc([C@]5(C)CCCN5C(C)C)cc4)cc23)CC1` [Compound 535], the half-maximal inhibitory concentration (IC50) is < 10 nM.

Take `O=C(C1CC1)N1CCN(c2ccnn3cc(-c4ccc(C5(C(=O)O)CCNCC5)cc4)cc23)CC1` [Compound 781]: the IC50 is 10 to 50 nM.

`CCOC(=O)N1CCN(c2ccnn3cc(-c4ncc(N5CCN(C(C)C)CC5)cn4)cc23)CC1` [Compound 555]: the 50% inhibitory concentration (IC50) is < 10 nM.

Regarding `O=C(C1CC1)N1CCN(c2ccnn3cc(-c4ccc(N5CCC6(CCNC6)C5)cc4)cc23)CC1` (stereo not shown) [Compound 244], the IC50 was < 10 nM.

Take `O=C(C1CC1)N1CCN(c2ccnn3cc(-c4ccc([C@@H]5CCNC[C@@H]5F)cc4)cc23)CC1` [Compound 176]: the IC50 is 10 to 50 nM.

For the molecule `CC(C)N1CCC(c2ncc(-c3cc4c(N5CCN(C(=O)C6CC6)CC5)ccnn4c3)cn2)CC1` [Compound 525], the IC50 is < 10 nM.

In the case of `CCN1CCN(c2cc(F)c(-c3cc4c(N5CCN(C(=O)C6CC6)CC5)ccnn4c3)c(F)c2)CC1` [Compound 362], the IC50 was 10 to 50 nM.

Turning to `CCOC(=O)N1CCN(c2ccnn3cc(-c4cnc(C5CCN(C(C)C)CC5)nc4)cc23)CC1` [Compound 552], the concentration for half-maximal inhibition (IC50) was < 10 nM.

Regarding `CCN1CCN(c2ccc(-c3cc4c(N5CCN(C(=O)[C@@H]6C[C@@H]6F)CC5)ccnn4c3)cc2)CC1` [Compound 291], the IC50 lay within 10 to 50 nM.

For `CCN1CCC(n2cc(-c3cc4c(N5CCN(C(=O)C6CC6)CC5)ccnn4c3)cn2)C1` (stereo not shown) [Compound 139], the concentration for half-maximal inhibition (IC50) is < 10 nM.

Turning to `CCOC(=O)N1CCN(c2ccnn3cc(-c4ccc([C@@]5(C)CCCN5C(C)C)cc4)cc23)CC1` [Compound 536], the IC50 is < 10 nM.

As for `CC(C)N1CCCC(O)(c2ccc(-c3cc4c(N5CCN(C(=O)C6CC(C#N)C6)CC5)ccnn4c3)cc2)C1` (stereo not shown) [Compound 707], the IC50 was < 10 nM.

As for `CCOC1(c2ccc(-c3cc4c(N5CCN(C(=O)OC6COC6)CC5)ccnn4c3)nc2)CCN(C(C)CF)CC1` (stereo not shown) [Compound 881], the IC50 is < 10 nM.

Regarding `CCN1CCN(c2ccc(-c3cc4c(N5CCN(C(=O)C6(F)CC6)CC5)ccnn4c3)cc2)CC1` [Compound 294], the IC50 was 10 to 50 nM.

Take `O=C(C1CC1)N1CCN(c2ccnn3cc(-c4ncc5n4CCNC5)cc23)CC1` [Compound 101]: the IC50 is > 50 nM.

For `CCN1CCC(n2cc(-c3cc4c(N5CCN(C(=O)C6CC6)CC5)ccnn4c3)cn2)CC1` [Compound 183], the IC50 lay within 10 to 50 nM.

For the molecule `O=C(C1CC1)N1CCN(c2ccnn3cc(-c4c(F)cc(N5CCNCC5)cc4F)cc23)CC1` [Compound 239], the IC50 was < 10 nM.

On to `CCOC(=O)N1CCN(c2ccnn3cc(-c4ccc(C5CCN(C(C)C)CC5)cc4F)cc23)CC1` [Compound 612], for which the IC50 is < 10 nM.

For the molecule `CCS(=O)(=O)c1ccc(-c2cc3c(N4CCN(C(=O)C5CC5)CC4)ccnn3c2)cc1` [Compound 765], the IC50 was < 10 nM.

With `CCN1CCN(c2ccc(-c3cc4c(N5CCN(C(=O)C6CC6)C(C(F)F)C5)ccnn4c3)cc2)CC1` (stereo not shown) [Compound 403, cyclopropyl(2-(difluoromethyl)-4-(6-(4-(4-ethylpiperazin-1-yl)phenyl)pyrrolo[1,2-b]pyridazin-4-yl)piperazin-1-yl)methanone], the concentration for half-maximal inhibition (IC50) is > 50 nM.

As to `CCN1CCN(c2ccc(-c3cc4c(N5CCN(C(=O)N6CC7(COC7)C6)CC5)ccnn4c3)cc2)CC1` [Compound 417], the 50% inhibitory concentration (IC50) lay in the range of 10 to 50 nM.

On to `CCN1CCC(c2ccc(-c3cc4c(N5CCN(C(=O)C(C)=O)CC5)ccnn4c3)cc2)CC1` [Compound 215], for which the IC50 lay in the range of 10 to 50 nM.

On to `O=C(C1CC1)N1CCN(c2ccnn3cc(-c4ccc(OCC5CCNC5)cc4)cc23)CC1` (stereo not shown) [Compound 166], for which the IC50 is < 10 nM.

Regarding `CCNC(=O)N1CCN(c2ccnn3cc(-c4ccc([C@H]5CNCCO5)cc4)cc23)CC1` [Compound 141], the 50% inhibitory concentration (IC50) was 10 to 50 nM.

Regarding `NC(c1ccc(-c2cc3c(N4CCN(C(=O)C5CC5)CC4)ccnn3c2)cc1)C1CCCO1` (stereo not shown) [Compound 769], the IC50 was < 10 nM.

Consider `O=C(C1CC1)N1CCN(c2ccnn3cc(-c4ccc(Br)cc4)cc23)CC1` [Compound 119], for which the concentration for half-maximal inhibition (IC50) is > 50 nM.

For the molecule `CCN1CC2CN(c3ccnn4cc(-c5ccc(N6CCNCC6)cc5)cc34)CCN2C1=O` (stereo not shown) [Compound 171], the half-maximal inhibitory concentration (IC50) is 10 to 50 nM.

`COC1(c2ccc(-c3cc4c(N5CCN(C(=O)[C@H]6C[C@H](C#N)C6)CC5)ccnn4c3)nc2)CCN([C@H](C)CO)CC1` [Compound 742]: the IC50 was < 10 nM.

In the case of `O=C(C1CC1)N1CCN(c2ccnn3cc(-c4ccc(C5CCOCC5)cc4)cc23)CC1` [Compound 126], the IC50 lay within 10 to 50 nM.

On to `CCNC(=O)N1CCN(c2ccnn3cc(-c4cnc(C5CCN(C(C)C)CC5)nc4)cc23)CC1` [Compound 547], for which the IC50 is < 10 nM.

As to `COC1(c2ccc(-c3cc4c(N5CCN(C(=O)C6CC(C#N)C6)CC5)ccnn4c3)cc2)CCCN(C(C)C)C1` (stereo not shown) [Compound 730], the IC50 was < 10 nM.

As for `N[C@H]1CCc2cc(-c3cc4c(N5CCN(C(=O)C6CC6)CC5)ccnn4c3)ccc21` [Compound 449], the concentration for half-maximal inhibition (IC50) was < 10 nM.

`O=C(C1CC1)N1CCN(c2ccnn3cc(-c4ccc(N5CCNCC5C(F)(F)F)cc4)cc23)CC1` (stereo not shown) [Compound 374, cyclopropyl(4-(6-(4-(2-(trifluoromethyl)piperazin-1-yl)phenyl)pyrrolo[1,2-b]pyridazin-4-yl)piperazin-1-yl)methanone]: the half-inhibitory concentration (IC50) fell in the range of 10 to 50 nM.

Regarding `CCN1CCC[C@@H](c2ccc(-c3cc4c(N5CCN(C(=O)C6CC6)CC5)ccnn4c3)cc2)C1` [Compound 206], the IC50 is < 10 nM.

Turning to `CC(C)N1CCC(c2ccc(-c3cc4c(N5CCN(C(=O)OCC(C)(C)C)CC5)ccnn4c3)cc2)CC1` [Compound 670], the IC50 was < 10 nM.

For `Cc1nc(C2CCNCC2)sc1-c1cc2c(N3CCN(C(=O)C4CC4)CC3)ccnn2c1` [Compound 190], the IC50 was < 10 nM.

As for `CCN1CCN(c2ccc(-c3cc4c(N5CCN(C(=O)C6(c7cccc(F)c7)CC6)CC5)ccnn4c3)cc2)CC1` [Compound 443], the half-maximal inhibitory concentration (IC50) was 10 to 50 nM.

For the molecule `CCN1CCC(c2ccc(-c3cc4c(N5CCN(C(=O)C6(C(F)(F)F)CC6)CC5)ccnn4c3)cc2)C1` (stereo not shown) [Compound 410], the half-maximal inhibitory concentration (IC50) was > 50 nM.

On to `CC(C)N[C@H]1CCc2cc(-c3cc4c(N5CCN(C(=O)C6CC6)CC5)ccnn4c3)ccc21` [Compound 472], for which the IC50 was < 10 nM.

For `CC(C)N1CCC(c2ccc(-c3cc4c(N5CCN(C(=O)C6CC6)CC5)ccnn4c3)c(F)c2)CC1` [Compound 584], the IC50 was < 10 nM.

`CN1CCn2c(cnc2-c2cc3c(N4CCN(C(=O)C5CC5)CC4)ccnn3c2)C1` [Compound 106]: the 50% inhibitory concentration (IC50) is > 50 nM.

As for `NCC(O)c1ccc(-c2cc3c(N4CCN(C(=O)C5CC5)CC4)ccnn3c2)cc1` (stereo not shown) [Compound 751], the half-inhibitory concentration (IC50) was < 10 nM.

Take `CC(C)N1CCC(c2ccc(-c3cc4c(N5CC6CC(C5)N6C(=O)C5CC5)ccnn4c3)cc2)CC1` [Compound 306]: the half-inhibitory concentration (IC50) was 10 to 50 nM.

As for `CCN1CCC(c2ccc(-c3cc4c(N5CCN(C(=O)C6CC6C6CCC6)CC5)ccnn4c3)cc2)C1` (stereo not shown) [Compound 372], the IC50 is < 10 nM.
